Results on 1 compound are retold here after patent publication US6469027B1, “N-methyl-D-aspartate (NMDA) receptor blockers for the prevention of atherosclerosis” (The Board of Regents of the University of Nebraska, priority 1996, dated 2002).

In one experiment the test system is protein kinase C. Put plainly: Distribution of protein kinase C activity in N-VSMC fractions. Conditions: 100 μM H[cys] for 60 min. The class given is cell-based, chicken. The protocol: FIGS. 6A-6C show the distribution of protein kinase C in the presence of H[cys], TPA and TGF β1. […] Cells were harvested and separated into cytosol membrane particulate and nuclear fractions, and PKC activity measured as described in Material and Methods. The data are reported as the mean ± standard error of eight separate determinations. (B) Immunolocalization of PKC epsilon in M- and N-VSMC. Cell cultures were plated and grown for three days prior to immunohistochemistry staining of PKC epsilon in the N-VSM (bottom) contrasted with the low levels of expression of the enzyme in M-VSMC (top). The staining can be seen in cytosol, nucleus and associated with intracellular fibers. (C) Use of PKC epsilon IgG to detect enzyme in M- and N-VSMC by western blot. The C-lane represents purified recombinant PKC epsilon; M and N are samples derived from mesoderm (abdominal ) and neurocrest & (thoracic) smooth muscle cells, respectively.
Protein kinase C activity: Protein kinase C activity was determined using a method of a previously published procedure with modifications. Wrenn, R.W. et al. (supra). […] Each of these fractions was analyzed for total PKC activity in the presence and absence of calcium chloride as described previously. […]

Another experiment deals with Myb protein. Description: Expression of Myb protein in rabbit aortic cells. The class given is cell-based. The protocol:
For each of the following experiments, aortic smooth muscle cells were obtained from 2-3 lb. New Zealand rabbits; these cells were cultured as described above, and evaluated for their responses to Hcy.

Another experiment relates to N-VSMC. Description: [3H]thymidine incorporation (DNA synthesis) in N-VSMC cultures. The class given is cell-based, chicken. The procedure: FIG. 1 is a graph illustrating homocysteine's effects on the growth of VSMC cultures. Confluent N-VSMC cultures were growth arrested by incubating cells with M199 medium containing 1 μg/ml BSA for 48 h, exposed to various concentrations of H[cys] (0.01-4000μM) for 30 h, pulse labeled for 6 h with 2 μCi/ml [^3H]-thymidine, and cell monolayers were washed twice with cold (0° C.) 10% trichloroacetic acid (TCA). The amount of [^3H]-thymidine incorporation was determined by scintillation spectrophotometry. Results are shown as the means of ±S.D.
FIGS. 2A-2C are graphs illustrating the effects of glutamate, homocysteic acid and NMDA on DNA synthesis in N-VSMC. N-VSMC were cultured and serum-deprived as described in “Experimental Procedures.” Cultures were treated with various concentrations of homocysteic acid (2A), NMDA (2B), or L-glutamate (2C) for 30 and pulsed 6h with [^3H] thymidine. All values are expressed as ±S.D. of six independent experiments completed in quadruplicate.
(§1) Smooth Muscle Culture: The thoracic (N) and abdominal (M) aorta of normal 16 and 18-day embryos were cleaned of fat, and the intima-media was isolated from the adventitia. The intima-media was enzymatically dispersed into a single cell suspensions by a combination of collagenase and elastase followed by trypsin. VSMC were placed in primary culture at a constant density of 2×10^4 cells/cm^2 in multiwell plates or 100 mm culture plates in Medium 199 supplemented with 10% fetal bovine serum (FMS) and 2 mM glutamine, in an atmosphere of 95% air: 5% Co2 at 37° C. Primary cultures were grown for 7 days before they were seeded into first passage at the same cell density and grown to confluence. Experiments were carried out between passages 3-6. Experimental conditions for all cells included 48 h in Medium 199 supplemented with 1% FBS prior to initiating and experiment.
(§2) DNA Synthesis: Growth factors were added directly to quiescent VSMCs in Medium 199 as described above. The cells were pulsed between 4-6 h with a final concentration of 2-5 μCi/ml [^3H]thymidine added at the times and for the periods indicated in the figure legends. The cells were washed, and the incorporation of [^3H]thymidine into acid insoluble material was determined as previously described. Den-Heijer, M. et al. (1996), Hyperhomocystinemia as a risk factor for deep-vein thrombosis. N. Eng. J. Med. 334(12):759-762.
In general terms: Uptake of a labelled nucleoside into DNA is a usual measure of proliferation.

Experiment [1] relates to VSMC isolated from abdominal. Description: [3H]thymidine incorporation (DNA synthesis) in abdominal aorta VSMC. The settings on record: abdominal VSMC compared with N-VSMC. The class given is cell-based, chicken.
Description: as §1, §2

The next experiment deals with c-myb. Put plainly: c-myb expression in TA-VSMCs. The class given is cell-based.
For the next experiment, the system named is diacylglycerol. Put plainly: sn-1,2-Diacylglycerol assay in VSMC. The class given is cell-based, chicken. The procedure: FIGS. 7A-7C are graphs illustrating the effect of H[cys] on diacylglycerol content in N-VSMC. (A) Time course of changes of membrane diacylglycerol content cell treated with 100μM H[cys] for the various times. Cells were recovered, membrane lipids extracted and diacylglycerol amounts determined as described in Methods. Results are expressed as the mean ± standard error of quadruplicate incubations from six independent experiments. (B) Effects of varying concentrations of H[cys] on diacylglycerol synthesis. Cells were treated for 30 min with different concentrations of H[cys] and membrane lipids were isolated and the diacylglycerol content determined. (C) Effect of PKC inhibitors on H[cys] mediated cell proliferation. N-VSMC cultures were grown in 1% FBS and 100 μM H[cys] in the presence and absence of staurosporine and cheleyrithrine chloride for the times (days-d) indicated. Cells were counted in quadruplicate in a Coulter counter every three days. Values represent the mean ±S.D. from four independent experiments.
.sn-1,2-Diacylglycerol assay: VSMC were treated with 0.01 to 100 μM H[cys] for 15-60 min. Cells were harvested and lipids were extracted by the method of Priess et al., (18). The analysis of diacylglycerol synthesis was as described previously by Wrenn et al. Wrenn, R. W. et al. (1993). […]

Experiment [2] has as its system Rabbit aortic smooth muscle cells. Put plainly: Calcium uptake in rabbit aortic smooth muscle cells. The class given is cell-based. Conditions: 10μM for 40 seconds. The protocol:
For each of the following experiments, aortic smooth muscle cells were obtained from 2-3 lb. New Zealand rabbits; these cells were cultured as described above, and evaluated for their responses to Hcy. […] This response is similar to that of the embryonic cells (see above).

For the compound `N[C@@H](CCS)C(=O)O` [homocysteine], the “distribution of PKC activity” value with protein kinase C is recorded as “significant increase in membrane-associated PKC”. For the same compound, the “expression of the Myb protein” value with Myb protein was “dose-responsive expression”. Also, the DNA synthesis increased in the experiment on N-VSMC (N-VSMC incubated with 0.01 to 4000 μM homocysteine, dose dependent and saturable) is on record as 12 fold. In the experiment on N-VSMC (homocysteine concentrations above 300 μM), the “DNA synthesis at high concentration” value is given as “completely suppressed”. The DNA synthesis increased in the experiment with N-VSMC (neural crest derived smooth muscle cells) was 5 fold. Also, in experiment [1], the “effect on DNA synthesis” value is recorded as “did not respond similarly”. Besides, in the experiment with c-myb, the c-myb synthesis entry is listed as “dose-dependent increase” and the “concentration of maximal effect on c-myb synthesis” value is on record as below 2.5 mM. The “concentration at which increase in DAG membrane levels was first evident” value with diacylglycerol (30 min) was 3 µM. For the same compound, the “increase in DAG production” value in the experiment with diacylglycerol (treated for 15-60 min) came to 3 fold. Besides, the calcium flux result in experiment [2] is listed as “significant calcium flux”.
